Tests used:
[1] = test system: KRAS^G12A-NSCLC H1573 cell line; experiment: Ex vivo Edu proliferation test (MI, GI %), H1573; type: cell-based; conditions: Table 1; 4 days; uM: osimertinib 0.5, afatinib 0.2, cobimetinib 0.4, trametinib 0.02, TAK-733 0.18, palbociclib 0.15, ribociclib 5
Procedure: (§1) For ex vivo drug testing, the cells were exposed to a combination of drugs or single drugs for 4 days or 7 days. Following exposure with drug, 1,000-5,000 cells were labeled with 5-ethynyl-2′-deoxyuridine (Edu) to assess the tumor cell proliferation rates. The labeling lasted 24 hours in the presence of drug exposure. In the control group, epithelial tumor cells received no drug exposure with media change (with 0.1% DMSO), but were similarly labeled with Edu. The labeled cells were fixed and blocked with 3% BSA and 0.5% Triton X-100 for 2 hours at room temperature, followed by staining with Hoechst 33342 and EpCAM antibody (1:4000) in PBS solution containing 0.5% Triton X-100 overnight at 4° C. Subsequently, the cells were rinsed with PBST then incubated with Alexa Fluor® 647 conjugated goat-antimouse secondary antibody for 30 minutes at room temperature.
(§2) The incorporated Edu was detected by Click-iT reaction where fixed cells were incubated with a reaction mixture containing 1× Click-iT Edu reaction buffer, CuSO4, and azide-conjugated Alexa Fluor dye in the dark. The stained cells were washed with PBS two times before image acquisition and analysis.
(§3) For image acquisition and analysis, the stained tumor cells were imaged by a high-content screening (HCS) platform (Thermo Scientific CellomicsArrayScanXTi HCS reader). The 10× objective was used to collect images. Twenty-five fields were imaged for each well for the analysis. From the images three fluorescent signals were obtained from the HCS reader. Blue fluorescent signals recorded nucleus signals stained with Hoechst 33342, green fluorescent signal detected the Edu incorporated in newly synthesized DNA, and red fluorescent signal detected the EpCAM positive epithelial cells population.
The MI (Maximum Inhibition Index) was calculated using the EpCAM and Edu positive readout (Tables 1-4). MI=Edu positive cells in control/Edu positive cells in treatment. MI4 indicates an MI value after 4 days of treatment and MI7 indicates an MI values after 7 days of treatment. […] GI % is calculated as GI %=(1−1/MI)*100%.

[2] = test system: KRAS^G12C-NSCLC H358 cell line; experiment: Ex vivo Edu proliferation test (MI, GI %), H358; type: cell-based; conditions: Table 2a; 7 days; uM: osimertinib 0.5, afatinib 0.2, cobimetinib 0.4, trametinib 0.02, palbociclib 0.15, ribociclib 5
Procedure: as §1, §2, §3
(§4) The MI (Maximum Inhibition Index) was calculated using the EpCAM and Edu positive readout (Tables 1-4). MI=Edu positive cells in control/Edu positive cells in treatment. MI4 indicates an MI value after 4 days of treatment and MI7 indicates an MI values after 7 days of treatment. The MI and growth inhibition rate (GI %) values for KRAS^G12A-NSCLC (H1573 and H2009), KRAS^G12C-NSCLC (H358, H23 and H2030), KRAS^G12V-NSCLC (H2291 and H2444) and KRAS^G12D-NSCLC (H1588 and SK-LU-1) cell lines are shown in Tables 1-4, respectively. GI % is calculated as GI %=(1−1/MI)*100%.

[3] = test system: KRAS^G12D-NSCLC SK-LU-1 cell line; experiment: Ex vivo Edu proliferation test (MI, GI %), SK-LU-1; type: cell-based; conditions: Table 4; 4 days; uM: osimertinib 0.5, afatinib 0.2, cobimetinib 0.4, trametinib 0.02, TAK-733 0.18, palbociclib 0.15, ribociclib 5
Procedure: as §1, §2, §3, §4

[4] = test system: KRAS^G12D-NSCLC H1588 cell line; experiment: Ex vivo Edu proliferation test (MI, GI %), H1588; type: cell-based; conditions: Table 4; 4 days; uM: osimertinib 0.5, afatinib 0.2, cobimetinib 0.4, trametinib 0.02, TAK-733 0.18, palbociclib 0.15, ribociclib 5
Procedure: as §1, §2, §3, §4

[5] = test system: KRAS^G12C-NSCLC H2030 cell line; experiment: Ex vivo Edu proliferation test (MI, GI %), H2030; type: cell-based; conditions: Table 2a; 7 days; uM: osimertinib 0.5, afatinib 0.2, cobimetinib 0.4, trametinib 0.02, palbociclib 0.15, ribociclib 5
Procedure: as §1, §2, §3, §4

[6] = test system: KRAS^G12C-NSCLC H23 cell line; experiment: Ex vivo Edu proliferation test (MI, GI %), H23; type: cell-based; conditions: Table 2a; 7 days; uM: osimertinib 0.5, afatinib 0.2, cobimetinib 0.4, trametinib 0.02, palbociclib 0.15, ribociclib 5
Procedure: as §1, §2, §3, §4

[7] = test system: KRAS^G12V-NSCLC H2291 cell line; experiment: Ex vivo Edu proliferation test (MI, GI %), H2291; type: cell-based; conditions: Table 3; 7 days; uM: osimertinib 0.5, afatinib 0.2, trametinib 0.02, TAK-733 0.18, palbociclib 0.15, ribociclib 5
Procedure: as §1, §2, §3, §4

[8] = test system: KRAS^G12V-NSCLC H2444 cell line; experiment: Ex vivo Edu proliferation test (MI, GI %), H2444; type: cell-based; conditions: Table 3; 4 days; uM: osimertinib 0.5, afatinib 0.2, trametinib 0.02, TAK-733 0.18, palbociclib 0.15, ribociclib 5
Procedure: as §1, §2, §3, §4

[9] = test system: KRAS^G12A-NSCLC H2009 cell line; experiment: Ex vivo Edu proliferation test (MI, GI %), H2009; type: cell-based; conditions: Table 1; 4 days; uM: osimertinib 0.5, afatinib 0.2, cobimetinib 0.4, trametinib 0.02, TAK-733 0.18, palbociclib 0.15, ribociclib 5
Procedure: as §1, §2, §3, §4

[10] = test system: KRAS^G12C NSCLC CDX model H358; type: in vivo

SMILES | GI % (Growth Inhibition Rate), H1573 [1] [%] | MI 4 (Maximum Inhibition Index), H1573 [1] | GI % (Growth Inhibition Rate), H358 [2] [%] | MI 7 (Maximum Inhibition Index), H358 [2] | GI % (Growth Inhibition Rate), SK-LU-1 [3] [%] | MI 4 (Maximum Inhibition Index), SK-LU-1 [3] | GI % (Growth Inhibition Rate), H1588 [4] [%] | MI 4 (Maximum Inhibition Index), H1588 [4] | GI % (Growth Inhibition Rate), H2030 [5] [%] | MI 7 (Maximum Inhibition Index), H2030 [5] | GI % (Growth Inhibition Rate), H23 [6] [%] | MI 7 (Maximum Inhibition Index), H23 [6] | GI % (Growth Inhibition Rate), H2291 [7] [%] | MI 7 (Maximum Inhibition Index), H2291 [7] | GI % (Growth Inhibition Rate), H2444 [8] [%] | MI 4 (Maximum Inhibition Index), H2444 [8] | GI % (Growth Inhibition Rate), H2009 [9] [%] | MI 4 (Maximum Inhibition Index), H2009 [9] | other results
CN(C)C/C=C/C(=O)Nc1cc2c(Nc3ccc(F)c(Cl)c3)ncnc2cc1O[C@H]1CCOC1 [Afatinib, afatinib] | 42.36 | 1.73 | 22.84 | 1.30 | 8.65 | 1.09 | 43.02 | 1.75 | 55.33 | 2.23 | 16.09 | 0.87 | 26.00 | 1.35 | 44.30 | 1.80 | 14.83 | 1.17 | –
O=C(c1ccc(F)c(F)c1Nc1ccc(I)cc1F)N1CC(O)([C@@H]2CCCCN2)C1 [Cobimetinib, cobimetinib] | 96.36 | 27.49 | 97.48 | 39.68 | 64.82 | 2.84 | 48.38 | 1.94 | 92.44 | 13.21 | 75.83 | 4.25 | – | – | – | – | 67.99 | 3.12 | –
C=CC(=O)Nc1cc(Nc2nccc(-c3cn(C)c4ccccc34)n2)c(OC)cc1N(C)CCN(C)C [Osimertinib, osimertinib] | 67.71 | 3.10 | 22.86 | 1.30 | 35.73 | 1.56 | 55.11 | 2.23 | 57.39 | 2.35 | 13.11 | 0.89 | 21.19 | 1.30 | 66.51 | 2.99 | 35.30 | 1.55 | –
CC(=O)c1c(C)c2cnc(Nc3ccc(N4CCNCC4)cn3)nc2n(C2CCCC2)c1=O [Palbociclib, palbociclib] | 92.17 | 12.77 | 60.31 | 2.53 | 73.45 | 3.77 | 53.52 | 2.15 | 52.39 | 2.10 | 41.73 | 1.72 | 81.25 | 5.36 | 59.59 | 2.47 | 8.82 | 1.10 | –
CN(C)C(=O)c1cc2cnc(Nc3ccc(N4CCNCC4)cn3)nc2n1C1CCCC1 [Ribociclib, ribociclib] | 99.00 | 100.43 | 95.43 | 21.19 | 91.58 | 11.88 | 60.57 | 2.54 | 84.67 | 6.57 | 74.57 | 3.96 | 98.65 | 72.98 | 74.54 | 3.93 | 10.09 | 1.11 | –
Cn1c(=O)c(F)c(Nc2ccc(I)cc2F)c2c(=O)n(C[C@@H](O)CO)cnc21 [TAK-733] | 89.62 | 9.64 | – | – | 77.44 | 4.43 | 36.93 | 1.59 | – | – | – | – | 98.27 | 57.57 | 99.01 | 100.76 | 62.18 | 2.64 | –
N.N.[Cl][Pt][Cl] [cisplatin] | – | – | – | – | – | – | – | – | – | – | – | – | – | – | – | – | – | – | Mean Tumor Volume, study day 0 ([10]; Table 11A, day 0, mg/kg: osimertinib 10, cobimetinib 5, TAK-733 10, palbociclib 20 daily p.o., cetuximab 1, cisplatin 4 per week i.p., 21 days, then 7 days off): 164.52 ± 22.82 mm^3; Mean Tumor Volume, study day 3 ([10]; Table 11A, day 3, mg/kg: osimertinib 10, cobimetinib 5, TAK-733 10, palbociclib 20 daily p.o., cetuximab 1, cisplatin 4 per week i.p., 21 days, then 7 days off): 249.59 ± 33.58 mm^3; Mean Tumor Volume, study day 7 ([10]; Table 11A, day 7, mg/kg: osimertinib 10, cobimetinib 5, TAK-733 10, palbociclib 20 daily p.o., cetuximab 1, cisplatin 4 per week i.p., 21 days, then 7 days off): 438.18 ± 93.81 mm^3; Mean Tumor Volume, study day 10 ([10]; Table 11A, day 10, mg/kg: osimertinib 10, cobimetinib 5, TAK-733 10, palbociclib 20 daily p.o., cetuximab 1, cisplatin 4 per week i.p., 21 days, then 7 days off): 489.05 ± 102.01 mm^3; Mean Tumor Volume, study day 14 ([10]; Table 11A, day 14, mg/kg: osimertinib 10, cobimetinib 5, TAK-733 10, palbociclib 20 daily p.o., cetuximab 1, cisplatin 4 per week i.p., 21 days, then 7 days off): 618.71 ± 145.67 mm^3; Mean Tumor Volume, study day 17 ([10]; Table 11A, day 17, mg/kg: osimertinib 10, cobimetinib 5, TAK-733 10, palbociclib 20 daily p.o., cetuximab 1, cisplatin 4 per week i.p., 21 days, then 7 days off): 685.80 ± 180.07 mm^3; Mean Tumor Volume, study day 21 ([10]; Table 11A, day 21, mg/kg: osimertinib 10, cobimetinib 5, TAK-733 10, palbociclib 20 daily p.o., cetuximab 1, cisplatin 4 per week i.p., 21 days, then 7 days off): 828.32 ± 220.11 mm^3; Mean Tumor Volume, study day 24 ([10]; Table 11A, day 24, mg/kg: osimertinib 10, cobimetinib 5, TAK-733 10, palbociclib 20 daily p.o., cetuximab 1, cisplatin 4 per week i.p., 21 days, then 7 days off): 958.50 ± 207.93 mm^3; Mean Tumor Volume, study day 28 ([10]; Table 11A, day 28, mg/kg: osimertinib 10, cobimetinib 5, TAK-733 10, palbociclib 20 daily p.o., cetuximab 1, cisplatin 4 per week i.p., 21 days, then 7 days off): 1079.33 ± 275.10 mm^3; Tumor volume (mm^3) day 0 ([10]; Table 11C, day 0, doses as Table 11A (TAK-733 10 mg/kg)): 164.52 ± 22.82 mm^3; Tumor volume (mm^3) day 28 ([10]; Table 11C, day 28, doses as Table 11A (TAK-733 10 mg/kg)): 1079.33 ± 275.10 mm^3; TGI % ([10]; Table 11C, day 28 vs day 0, doses as Table 11A (TAK-733 10 mg/kg)): −10.2%; tumor growth inhibition, in words ([10]; Tables 11A and 11C, cisplatin at 4 mg/kg): no effect on inhibiting tumor growth

Reference: patent US20230310436A1, “COMBINATION THERAPY FOR CANCERS WITH KRAS MUTATION” (COTHERA BIOSCIENCE, INC., priority 2019, published 2023)
